Source: patent US12391685B2, “Inhibitors of RNA-guided nuclease target binding and uses thereof” (THE BROAD INSTITUTE, INC., priority 2018, dated 2025)
Entries after “also recorded” stand apart in the source; their conditions may differ.

Tests used:
[1] = target: FnCpf1 (Francisella tularensis subsp. novicida, UniProt A0Q7Q2); type: cell-based; details: 6-20 μM, 30 h
[2] = target: T1, SpCas9:gRNA (Streptococcus pyogenes serotype M1, UniProt Q99ZW2); experiment: In vitro DNA cleavage assay; type: biochemical, S. pyogenes; details: SpCas9 5 nM; read-out: apparent IC50
T1 construct: made in house; host or cells: E. coli Rosetta (DE3)
Method: In vitro DNA cleavage assay. Inhibition of SpCas9 nuclease activity was assessed in an in vitro DNA cleavage assay with a linearized substrate plasmid DNA. A 94 μL of preformed SpCas9:gRNA (5.3 nM) was incubated with a 3 μL DMSO solution of BRD0539 at the indicated concentrations (13.6-25 μM) for 30 min at room temperature followed by addition of 3 μL of 33.3 nM substrate DNA and incubation for additional 30 min at 37° C. The reaction was quenched by the addition of 2 μL of Proteinase K (Qiagen) for 10 min and then analyzed by 1% agarose gel and visualized by SYBR Gold (Thermofisher). The bands were quantified by Image J and plotted in GraphPad Prism.

[3] = target: T2, SpCas9:DNA interactions (Streptococcus pyogenes serotype M1, UniProt Q99ZW2); experiment: Differential scanning fluorimetry, disruption of SpCas9-DNA interaction; type: binding, S. pyogenes; details: SpCas9 1 μM, 8PAM DNA 2 μM, BRD0539 5-20 μM
T2 construct: made in house; host or cells: E. coli Rosetta (DE3)
Method: Disruption of SpCas9-DNA interaction by BRD0539. Protein melting experiments were performed in a 384-well format using a 6 μL reaction volume in a LightCycler 480 instrument. For DNA binding assay, 1 μM SpCas9 (1 μM) was incubated with indicated amount of 8PAM DNA (0.25, 0.5, 1, and 2 μM) for 15 min in a 20 mM Tris-HCl buffer (150 mM KCl, 5 mM MgCl2, 1 mM DTT, pH 7.5). For inhibition assay, SpCas9 (1 μM) or SpCas9:gRNA (1 μM) was incubated with indicated amount of either BRD0539 or equivalent amount of DMSO for 15 min in a 20 mM Tris-HCl buffer (150 mM KCl, 5 mM MgCl2, 1 mM DTT, pH 7.5). Next, a 8PAM DNA (2 μM) was added to each of the reaction and incubated for additional 15 min followed by addition of 1 μL of 100×SYPRO® Orange (Invitrogen) before running the melting cycle with a temperature gradient of 4.8° C./min. Experiments were performed in duplicate and data were processed using Roche LightCycler® 480 Protein Melting software.

[4] = target: T3, SpCas9:gRNA interaction (Streptococcus pyogenes serotype M1, UniProt Q99ZW2); experiment: Fluorescence polarization assay for SpCas9-gRNA binding; parameters: species or system S. pyogenes; details: 10-30 μM
T3 construct: made in house; host or cells: E. coli Rosetta (DE3)
Method: FIGS. 10A-10E—(FIG. 10A) Fluorescence polarization assay for detecting SpCas9-gRNA binding. A FITC-labeled crRNA:tracrRNA (25 nM) was titrated with an increasing amount of SpCas9 (7.5-250 nM). Error bars represent ±s.d. across technical replicates (n=3). […] An unlabeled crRNA:tracrRNA (25 nM) was pre-incubated with SpCas9 (25 nM) for 10 min before the addition of FITCcrRNA:tracrRNA (25 nM). Error bars represent ±s.d. across technical replicates (n=3). (FIG. 10C) Fluorescence polarization assay for determining the effect of BRD0539 in the SpCas9-FITCcrRNA:tracrRNA binding. SpCas9 (25 nM) was incubated with the indicated amount of BRD0539 (10-30 μM) for 15 min followed by the addition of FITC-crRNA:tracrRNA (25 nM), which was incubated for 30 min before measuring the FP signal. Error bars represent ±s.d. across technical replicates (n=3). (FIG. 10D) In vitro pulldown assay of SpCas9 by the BRD0539-biotin conjugate from WM793-SpCas9 cell lysate. Streptavidin magnetic beads pre-loaded with either BRD0539-biotin or biotin-azide were incubated with WM793-SpCas9 cell lysate for 12 h before processing the samples for western blotting. BRD0539 (20 μM) was used as a competitor. F and E represent the flow-through and eluent, respectively. […]

[5] = target: SpCas9 (Streptococcus pyogenes serotype M1, UniProt Q99ZW2); experiment: HiBiT assay in U2OS.eGFP.PEST cells; type: cell-based, S. pyogenes; parameters: host or cells: U2OS.eGFP.PEST; details: 24 h
Method: HiBiT assay. For SpCas9 expression in cells, the previously described JDS246 plasmid was used (Kleinstiver et al., 2015b). ssODN donor DNA template with the HiBiT tag was purchased as single-stranded Ultramer DNA Oligonucleotides (IDT) and resuspended to 40 μM in nuclease-free water. For the assay, 2×10^5 cells were co-transfected with 300 ng Cas9 plasmid, 75 ng sgRNA plasmid and 100 ng ssODN using the DN-100 program of Lonza 4D nucleofector according to the manufacturer's protocols. For negative controls, either the sgRNA plasmid or the ssODN was omitted. 20,000 transfected cells were plated in each well of a 96-well plate (Corning 3904). Immediately after transfection, cells were treated with varying concentrations of BRD0539 or BRD3433 and incubated at 37° C. with 5% CO2. 24 h after transfection, the cells were washed once with PBS and kept in 80 μL PBS. An equal volume of the Nano-Glo HiBiT Lytic Reagent (Promega N3030), consisting of Nano-Glo HiBiT Lytic Buffer, Nano-Glo HiBiT Lytic Substrate, and LgBiT Protein, was added according to the manufacturer's protocol, and cells were incubated for 10 min at ambient temperature with shaking at 600 rpm (Schwinn et al., 2018a). The cells were then incubated for an additional 10 min without shaking at room temperature to allow equilibration of the HiBiT and LgBiT in the lysate. The lysate was then transferred to a white plate (Corning 3990) and luminescence was measured using an Envision plate reader (Perkin-Elmer) with 1 s of integration time.

T2 sequence (Q99ZW2 whole entry): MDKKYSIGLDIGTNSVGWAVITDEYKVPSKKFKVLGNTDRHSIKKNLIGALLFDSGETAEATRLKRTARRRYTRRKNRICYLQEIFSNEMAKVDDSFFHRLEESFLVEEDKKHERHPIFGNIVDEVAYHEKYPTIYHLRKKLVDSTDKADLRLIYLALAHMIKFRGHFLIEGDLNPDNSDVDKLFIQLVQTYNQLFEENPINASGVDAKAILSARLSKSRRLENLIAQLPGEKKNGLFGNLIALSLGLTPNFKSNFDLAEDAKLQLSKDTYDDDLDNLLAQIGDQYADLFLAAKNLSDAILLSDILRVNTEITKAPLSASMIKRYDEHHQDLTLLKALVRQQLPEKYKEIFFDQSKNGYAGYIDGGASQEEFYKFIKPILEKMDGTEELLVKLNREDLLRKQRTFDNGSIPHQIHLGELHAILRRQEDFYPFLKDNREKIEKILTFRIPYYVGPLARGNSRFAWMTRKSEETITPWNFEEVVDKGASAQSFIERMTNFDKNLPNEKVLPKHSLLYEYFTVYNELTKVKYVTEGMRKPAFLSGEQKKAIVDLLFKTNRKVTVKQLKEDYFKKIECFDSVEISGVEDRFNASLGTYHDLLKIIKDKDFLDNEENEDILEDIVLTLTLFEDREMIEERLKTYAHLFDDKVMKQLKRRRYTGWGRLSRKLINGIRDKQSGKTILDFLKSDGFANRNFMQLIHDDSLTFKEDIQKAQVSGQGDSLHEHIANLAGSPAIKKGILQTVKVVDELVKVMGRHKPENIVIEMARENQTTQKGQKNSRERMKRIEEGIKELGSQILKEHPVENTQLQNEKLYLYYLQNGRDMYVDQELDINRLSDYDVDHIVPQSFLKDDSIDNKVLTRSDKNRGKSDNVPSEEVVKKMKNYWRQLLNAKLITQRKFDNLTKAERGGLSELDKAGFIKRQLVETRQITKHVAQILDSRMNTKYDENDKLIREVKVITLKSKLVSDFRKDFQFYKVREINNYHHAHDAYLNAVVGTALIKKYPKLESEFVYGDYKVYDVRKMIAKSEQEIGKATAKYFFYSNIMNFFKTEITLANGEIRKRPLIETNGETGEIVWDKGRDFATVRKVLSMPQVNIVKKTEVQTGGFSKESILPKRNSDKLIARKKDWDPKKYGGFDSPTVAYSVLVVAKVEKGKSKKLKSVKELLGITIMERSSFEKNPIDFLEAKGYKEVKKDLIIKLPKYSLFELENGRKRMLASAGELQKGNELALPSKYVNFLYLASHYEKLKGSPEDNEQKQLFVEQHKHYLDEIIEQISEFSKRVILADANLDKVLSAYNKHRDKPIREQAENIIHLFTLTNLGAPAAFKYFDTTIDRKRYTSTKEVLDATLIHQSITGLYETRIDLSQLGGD
SpCas9, sequence (Q99ZW2 whole entry): as above
T1 sequence (Q99ZW2 whole entry): as above

## Cc1ccc(S(=O)(=O)N2CC[C@@H]3[C@H](CO)Nc4ccc(-c5ccccc5F)cc4[C@@H]32)cc1 [BRD0539, ((3aR,4R,9bR)-8-(2-fluorophenyl)-1-tosyl-2,3,3a,4,5,9b-hexahydro-1H-pyrrolo[3,2-c]quinolin-4-yl) methanol]
[1]
  inhibition of FnCpf1 (in words): unable to inhibit
[2]
  IC50: 22 µM
[3]
  effect on formation of the DNA-bound state of SpCas9 (in words): dose-dependently blocked the formation of the DNA bound state; also recorded: dose-dependently blocked the formation of the DNA-bound state
[4]
  effect on SpCas9-FITC-crRNA:tracrRNA polarization signal: did not perturb the polarization signal
[5]
  inhibition of SpCas9 in the HiBiT assay (in words): dose-dependent inhibition
[5]; tested from 4.8-15 μM
  higher activity of BRD0539 than BRD3497 and BRD9419 in the HiBiT assay: greater than two-fold
